In ChEMBL document CHEMBL4402552, “The Discovery of 7-Methyl-2-[(7-methyl[1,2,4]triazolo[1,5-a]pyridin-6-yl)amino]-9-(tetrahydro-2H-pyran-4-yl)-7,9-dihydro-8H-purin-8-one (AZD7648), a Potent and Selective DNA-Dependent Protein Kinase (DNA-PK) Inhibitor” (J Med Chem, 2020):
Values after ≈ are worked out from the molar mass of the structure shown.

Experiments:
[1] = Drug level in mouse hepatocytes treated with 9-(trans-4-Hydroxycyclohexyl)-2-[(4-methoxy-2-methylphenyl)amino]-7-methyl-7,9-dihydro-8H-purin-8-one assessed as compound formation at 5 uM measured after 60 mins by UV-MS analysis; format: ADME, cell-based, Hepatocyte; settings: 1 h
[2] = Drug level in rat hepatocytes treated with 9-(trans-4-Hydroxycyclohexyl)-2-[(4-methoxy-2-methylphenyl)amino]-7-methyl-7,9-dihydro-8H-purin-8-one assessed as compound formation at 5 uM measured after 60 mins by UV-MS analysis; format: ADME, cell-based, Hepatocyte; settings: 1 h
[3] = physchem; settings: buffer, pH 7.4
[4] = Apparent permeability across apical to basolateral side in human Caco2 cells in absence of efflux inhibitor by ABBA assay; format: ADME, cell-based; settings: Caco-2
[5] = Intrinsic clearance in human microsomes; format: ADME, Microsome
[6] = Dissociation constant, pKa of the compound; format: physicochemical
[7] = Drug metabolism in mouse hepatocytes assessed as dealkylation at 5 uM measured after 60 mins by UV-MS analysis; format: ADME, cell-based, Hepatocyte; settings: 1 h
[8] = Drug metabolism in rat hepatocytes assessed as dealkylation and oxidation by measuring iminoquinone formation at 5 uM measured after 60 mins by UV-MS analysis; format: ADME, cell-based, Hepatocyte; settings: 1 h
[9] = Drug metabolism in mouse hepatocytes assessed as dealkylation and oxidation by measuring iminoquinone formation at 5 uM measured after 60 mins by UV-MS analysis; format: ADME, cell-based, Hepatocyte; settings: 1 h
[10] = Drug metabolism in rat hepatocytes assessed as dealkylation at 5 uM measured after 60 mins by UV-MS analysis; format: ADME, cell-based, Hepatocyte; settings: 1 h
[11] = Drug metabolism in human hepatocytes assessed as dealkylation at 5 uM measured after 60 mins by UV-MS analysis; format: ADME, cell-based, Hepatocyte; settings: 1 h
[12] = Cmax in ATM knock out human FADU cells xenografted SCID mouse at 100 mg/kg, po qd measured after 2 hrs; format: ADME, organism-based; settings: in vivo, read-out: T>IC50
[13] = Oral bioavailability in Han Wistar rat at 5 mg/kg; format: ADME, organism-based; settings: in vivo
[14] = Oral bioavailability in Beagle dog at 2 mg/kg; format: ADME, organism-based, Canis lupus familiaris; settings: in vivo
[15] = Solubility of the compound in fasted state simulated intestinal fluid using crystalline sample; format: physicochemical
[16] = Solubility of the compound in simulated gastric fluid using crystalline sample; format: physicochemical
[17] = Free plasma concentration in SCID mouse at 100 mg/kg, po qd measured after 10 hrs; format: ADME, organism-based; settings: in vivo
[18] = Time at which plasma concentration stays above in vitro IC50 for inhibition of DNA-PK in human A549 cells in SCID mouse at 100 mg/kg, po qd; format: organism-based; settings: in vivo
[19] = Volume of distribution at steady state in Beagle dog at 1 mg/kg, iv or 2 mg/kg, po; format: ADME, organism-based, Canis lupus familiaris; settings: in vivo, read-out: Vdss
[20] = Volume of distribution at steady state in Han Wistar rat at 2 mg/kg, iv or 5 mg/kg, po; format: ADME, organism-based; settings: in vivo, read-out: Vdss

SMILES | logD [3] | Papp A→B [4] | also measured
NC1=C(C(=O)c2ccccc2)/C(=N/c2ccccc2C(=O)c2ccccc2)C=CC1=O |  |  | Drug uptake [1]: Metabolite_Detected; Drug uptake [2]: Metabolite_Detected
COc1ccc(Nc2ncc3c(n2)n(C2CCCCC2)c(=O)n3C)c(C)c1 | 4.1 |  | 
Cc1cc2ncnn2cc1Nc1ncc2c(n1)n([C@H]1CC[C@H](O)CC1)c(=O)n2C | 1.3 | 4 nm/s | 
Cc1ccccc1Nc1ncc2c(n1)n([C@H]1CC[C@H](O)CC1)c(=O)n2C | 2.5 |  | 
Cc1cc2ncnn2cc1Nc1ncc2c(n1)n(C1CCC(F)(F)CC1)c(=O)n2C | 2 | 230 nm/s | microsomal CLint [5]: 68 µL/min/mg
COc1ccc(Nc2ncc3c(n2)n(-c2ccccc2)c(=O)n3C)c(C)c1 | 2.8 |  | 
Cn1c(=O)n([C@H]2CC[C@H](O)CC2)c2nc(Nc3ccccc3)ncc21 | 2.4 |  | 
COc1ccc(Nc2ncc3[nH]c(=O)n([C@H]4CC[C@H](O)CC4)c3n2)c(C)c1 | 2.3 |  | 
COc1ccc(Nc2ncc3c(n2)n([C@H]2CC[C@H](O)CC2)c(=O)n3C)cc1 | 2.3 |  | 
COc1ccc(C)c(Nc2ncc3c(n2)n([C@H]2CC[C@H](O)CC2)c(=O)n3C)c1 | 2.6 |  | 
Cc1cc2nccn2cc1Nc1ncc2c(n1)n(C1CCOCC1)c(=O)n2C |  | 110 nm/s | pKa [6]: 7.1
COc1ccc(Nc2ncc3c(n2)n(C2CCCC2)c(=O)n3C)c(C)c1 | 3.7 |  | 
Cc1cc2ncnn2cc1Nc1ncc2c(n1)n([C@H]1CC[C@@](C)(O)CC1)c(=O)n2C | 1.9 | 240 nm/s | pKa [6]: 3.6
Cc1c(Nc2ncc3c(n2)n([C@H]2CC[C@H](O)CC2)c(=O)n3C)ccc2nccn12 | 1.2 |  | 
Cn1c(=O)n([C@H]2CC[C@H](O)CC2)c2nc(Nc3ccc4nccn4c3)ncc21 | 1.8 |  | 
Cc1cc2nccn2cc1Nc1ncc2c(n1)n([C@H]1CC[C@H](O)CC1)c(=O)n2C | 1.4 | 4 nm/s | 
COc1ccc(Nc2ncc3c(n2)n([C@H]2CC[C@H](O)CC2)c(=O)n3C)c(C)c1 | 2.3 |  | microsomal CLint [5]: 49 µL/min/mg; Drug metabolism [7]: Metabolite_Detected; Drug metabolism [8]: Metabolite_Detected; Drug metabolism [9]: Metabolite_Detected; Drug metabolism [10]: Metabolite_Detected; Drug metabolism [11]: Metabolite_Detected
Cc1cc2ncnn2cc1Nc1ncc2c(n1)n(C1CCCCC1)c(=O)n2C | 3.1 | 240 nm/s | microsomal CLint [5]: 93 µL/min/mg
Cc1cc2ncnn2cc1Nc1ncc2c(n1)n([C@H]1CC[C@](C)(O)CC1)c(=O)n2C | 1.1 | 7 nm/s | 
Cn1c(=O)n([C@H]2CC[C@H](O)CC2)c2nc(Nc3ccc4ncnn4c3)ncc21 | 1.7 |  | 
Cc1cc2ncnn2cc1Nc1ncc2c(n1)n(C1CCOCC1)c(=O)n2C [AZD-7648] | 1.3 | 220 nm/s | Cmax [12]: 17 µM; bioavailability [13]: 104%; bioavailability [14]: 93%; solubility thermodynamic [15]: 180 µM (≈ 68.5 µg/mL); solubility thermodynamic [16]: > 10000 µM; Cp(f) [17]: > 1 µM; Time [18]: > 12 h; Vd [19]: 0.7 L/kg; Vd [20]: 1.4 L/kg; pKa [6]: 3.4
